The record followed here is patent US9107415B2, “2-(substituted-phenyl)-cyclopentane-1,3-dione compounds, and derivatives thereof” (Syngenta Limited, priority 2011, dated 2015).

Common to all, as to format: in vivo
Experiment [1] relates to Alopecurus myosuroides (ALOMY). The experiment is described as follows: Biological Example 1 glasshouse screen, pre-emergence herbicidal activity. As to conditions: 312 h, application rate 250 g/ha, evaluated after 13 days, read-out: ALOMY percentage phytotoxicity. The essentials: (§1)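 Thirteen days after spraying, each species was given a visual phytotoxicity score (100% = total damage; 0% = none). Application was made one day post-sowing for pre-emergence and after 8 days' cultivation for post-emergence; conditions 24/16°C, 14 h photoperiod, 65% humidity.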

In experiment [2] the test system is Echinochloa crus-galli (ECHCG). Described as above. The following applies: 312 h, application rate 250 g/ha, evaluated after 13 days, read-out: ECHCG percentage phytotoxicity. The essentials: as §1
Experiment [3] deals with Alopecurus myosuroides (ALOMY). The experiment is described as follows: Biological Example 1 glasshouse screen, post-emergence herbicidal activity. As to conditions: 312 h, application rate 250 g/ha, evaluated after 13 days, read-out: ALOMY percentage phytotoxicity. The essentials: as §1
In experiment [4] the test system is Echinochloa crus-galli (ECHCG). The experiment is described as above. The following applies: 312 h, application rate 250 g/ha, evaluated after 13 days, read-out: ECHCG percentage phytotoxicity. The essentials:
as §1

Experiment [5] has as its system Triticum aestivum, wheat (TRZAW). Nature of the experiment: Biological Example 3 glasshouse screen, post-emergence, phytotoxicity on wheat. The following applies: 360 h, 15 DAA, no safener, read-out: TRZAW percentage phytotoxicity. The essentials:
(§2)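 Selectivity screen without safener: 12-day-old plants sprayed post-emergence with acetone/IF50-formulated compound plus 0.2% v/v X-77, kept in glasshouse, visually rated for % injury 15 days after application.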

The subject of experiment [6] is Avena fatua, wild oats (AVEFA). The experiment is described as follows: Biological Example 3 glasshouse screen, post-emergence herbicidal activity. As to conditions: 360 h, 15 DAA, no safener, read-out: AVEFA percentage phytotoxicity. The essentials: as §2
Experiment [7] deals with Alopecurus myosuroides, blackgrass (ALOMY). The description is as above. As to conditions: 360 h, 15 DAA, no safener, read-out: ALOMY percentage phytotoxicity. The gist of the method: as §2
Experiment [8] relates to Lolium perenne, perennial ryegrass (LOLPE). The experiment is described as above. The following applies: 360 h, 15 DAA, no safener, read-out: LOLPE percentage phytotoxicity. The essentials: as §2
Experiment [9] concerns Echinochloa crus galli, barnyardgrass (ECHCG). The experiment is described as above. The following applies: 360 h, 15 DAA, no safener, read-out: ECHCG percentage phytotoxicity. The essentials:
as §2

Experiment [10] has as its system Ipomoea hederacea (IPOHE). Nature of the experiment: Biological Example 1 glasshouse screen, post-emergence herbicidal activity. As to conditions: application rate 250 g/ha, evaluated after 13 days. The procedure:
(§3) Seeds of a variety of test species were sown in standard soil in pots. After cultivation for one day (pre-emergence) or after 8 days cultivation (post-emergence) under controlled conditions in a glasshouse (at 24/16°C., day/night; 14 hours light; 65% humidity), the plants were sprayed with an aqueous spray solution derived from the formulation of the “technical”(i.e. unformulated) active ingredient in acetone/water (50:50) solution containing 0.5% Tween 20 (polyoxyethylene sorbitan monolaurate, CAS Registry Number 9005-64-5). The test plants were then grown in a glasshouse under controlled conditions in a glasshouse (at 24/16°C., day/night; 14 hours light; 65% humidity) and watered twice daily. After 13 days for pre- or post-emergence, the test was evaluated visually, and an assessed percentage phytotoxicity score given for each herbicidal application on each plant/weed species (with 100%=total damage to plant; 0%=no damage to plant).
(§4) Test plants: Alopecurus myosuroides (ALOMY), Setaria faberi (SETFA), Echinochloa crus-galli (ECHCG), Solanum nigrum (SOLNI), Amaranthus retroflexus (AMARE) and Ipomoea hederacea (IPOHE). ALOMY, SETFA and ECHCG are grassy monocotyledonous weeds. SOLNI, AMARE and IPOHE are dicotyledonous (broadleaved) weeds.

Experiment [11] has as its system Setaria faberi (SETFA). The description is as above. The following applies: application rate 250 g/ha, evaluated after 13 days. The procedure: as §3, §4
Experiment [12] deals with Amaranthus retroflexus (AMARE). The experiment is described as above. The following applies: application rate 250 g/ha, evaluated after 13 days. The procedure: as §3, §4
The test system of experiment [13] is Solanum nigrum (SOLNI). The description is as above. The following applies: application rate 250 g/ha, evaluated after 13 days. The procedure: as §3, §4
Experiment [14] relates to Alopecurus myosuroides (ALOMY). The experiment is described as follows: Biological Example 2 post-emergence herbicidal activity (comparative data). As to conditions: 312 h, read-out: ALOMY percentage phytotoxicity; for pest or weed control at 15.625 g/ha: 15.625 g/ha application rate; for pest or weed control at 62.5 g/ha: 62.5 g/ha application rate. The essentials:
(§5)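 Post-emergence spray after 8 days' glasshouse growth (24/16°C day/night, 14 h light, 65% humidity), using technical active ingredient in acetone/water (50:50) with 0.5% Tween 20. Visual phytotoxicity scored 13 days later, 0% = no damage to 100% = total damage.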

Experiment [15] deals with Echinochloa crus-galli (ECHCG). The experiment is described as above. As to conditions: 312 h, read-out: ECHCG percentage phytotoxicity; for pest or weed control at 15.625 g/ha: 15.625 g/ha application rate; for pest or weed control at 62.5 g/ha: 62.5 g/ha application rate. The gist of the method: as §5
Experiment [16] has as its system Setaria faberi (SETFA). The description is as above. The gist of the method: as §5
The subject of experiment [17] is Ipomoea hederacea (IPOHE). Nature of the experiment: Biological Example 1 glasshouse screen, pre-emergence herbicidal activity. The following applies: application rate 250 g/ha, evaluated after 13 days. The procedure:
as §3, §4

The test system of experiment [18] is Setaria faberi (SETFA). Described as above. The following applies: application rate 250 g/ha, evaluated after 13 days. The procedure:
as §3, §4

For experiment [19], the system named is Amaranthus retroflexus (AMARE). The experiment is described as above. As to conditions: application rate 250 g/ha, evaluated after 13 days. The procedure:
as §3, §4

Experiment [20] has as its system Solanum nigrum (SOLNI). The description is as above. The following applies: application rate 250 g/ha, evaluated after 13 days. The procedure:
as §3, §4

Take `CC#Cc1cc(C)c(C2C(=O)C3C(C2=O)[C@H]2CC[C@@H]3O2)c(C)c1` (mixture of isomers) [Compound A-18, (1RS,2SR,6RS,7SR)-4-(2,6-dimethyl-4-prop-1-ynylphenyl)-10-oxatricyclo[5.2.1.0^2,6]decane-3,5-dione]: the pest or weed control at 250 g/ha in experiment [1], in experiment [2], in experiment [3] and in [4] was 100% in each case. Also, the pest or weed control at 8 g/ha turned out to be 40% in experiment [5] (application rate 8 g/ha); 30% in experiment [6] (application rate 8 g/ha); 70% in experiment [7] (application rate 8 g/ha); 80% in [8] (application rate 8 g/ha); 80% in experiment [9] (application rate 8 g/ha). Besides, the IPOHE percentage phytotoxicity in experiment [10] and in [17] was 80% throughout. For the same compound, the SEFTA percentage phytotoxicity in the experiment on Setaria faberi (SETFA) [11] and with Setaria faberi (SETFA) [18] was 100% each time. Moreover, the results for the AMARE percentage phytotoxicity in experiment [12] and in experiment [19] were 30% and 100%, respectively. Also, the SOLNI percentage phytotoxicity in the experiment on Solanum nigrum (SOLNI) [13] and in the experiment with Solanum nigrum (SOLNI) [20] was 80% each time. The pest or weed control at 15.625 g/ha stood at 90% in [14] and 100% in experiment [15]. Besides, the pest or weed control at 62.5 g/ha in experiment [14] and in [15] was 100% in each case. Besides, the SETFA percentage phytotoxicity in the experiment on Setaria faberi (SETFA) [16] (15.625 g/ha application rate) is given as 70%; in the experiment with Setaria faberi (SETFA) [16] (62.5 g/ha application rate) it was 90%.

Take `CC#Cc1cc(C)c(C2=C(O)CCC2=O)c(C)c1` [Compound A-1, 2-(2,6-Dimethyl-4-prop-1-ynylphenyl)cyclopentane-1,3-dione]: the pest or weed control at 250 g/ha in [1] was 100%; in experiment [2], 100%; in experiment [3], 90%; in [4] it was 100%. Further, the pest or weed control at 125 g/ha is 40% in experiment [5] (application rate 125 g/ha); 0% in experiment [6] (application rate 125 g/ha); 70% in [7] (application rate 125 g/ha); 50% in experiment [8] (application rate 125 g/ha); 80% in [9] (application rate 125 g/ha). The IPOHE percentage phytotoxicity is given as 30% in [10] and 0% in experiment [17]. Moreover, the SEFTA percentage phytotoxicity with Setaria faberi (SETFA) [11] is 70%; in the experiment with Setaria faberi (SETFA) [18], 80%. Also, the AMARE percentage phytotoxicity in experiment [12] and in [19] was 0% throughout. In addition, the SOLNI percentage phytotoxicity is 10% in the experiment with Solanum nigrum (SOLNI) [13] and 0% in the experiment on Solanum nigrum (SOLNI) [20]. The pest or weed control at 15.625 g/ha in experiment [14] is 20%; in [15] it was 70%. The pest or weed control at 62.5 g/ha turned out to be 80% in [14] and 100% in experiment [15]. In addition, the SETFA percentage phytotoxicity was determined as 40% with Setaria faberi (SETFA) [16] (15.625 g/ha application rate) and 60% in the experiment with Setaria faberi (SETFA) [16] (62.5 g/ha application rate).

Turning to `Cc1cc(C#CCl)cc(C)c1C1C(=O)CCC1=O` [Compound A-16], the pest or weed control at 250 g/ha in experiment [1] is 50%; in experiment [2], 100%; in experiment [3], 50%; in [4], 100%. Besides, the IPOHE percentage phytotoxicity in [10] worked out at 10%; in [17], 0%. The SEFTA percentage phytotoxicity is on record as 70% with Setaria faberi (SETFA) [11] and 90% with Setaria faberi (SETFA) [18]. In addition, the figures for the AMARE percentage phytotoxicity in experiment [12] and in experiment [19] were 10% and 40%, respectively. The SOLNI percentage phytotoxicity in the experiment on Solanum nigrum (SOLNI) [13] is listed as 20%; in the experiment on Solanum nigrum (SOLNI) [20] it was 10%. Besides, the results for the pest or weed control at 15.625 g/ha in experiment [14] and in experiment [15] were 10% and 70%, respectively. Further, the pest or weed control at 62.5 g/ha in [14] was determined as 10%; in experiment [15], 90%. Also, the SETFA percentage phytotoxicity in the experiment on Setaria faberi (SETFA) [16] (15.625 g/ha application rate) came to 0%; in the experiment with Setaria faberi (SETFA) [16] (62.5 g/ha application rate) it was 80%.

Regarding `Cc1cc(C#CCl)cc(C)c1C1C(=O)C2C(C1=O)[C@H]1CC[C@@H]2O1` (stereo partly shown) [Compound A-17], the pest or weed control at 250 g/ha in experiment [1] is 80%; in experiment [2], 100%; in experiment [3], 80%; in experiment [4] it was 100%. The IPOHE percentage phytotoxicity worked out at 70% in [10] and 80% in [17]. The SEFTA percentage phytotoxicity in the experiment with Setaria faberi (SETFA) [11] is on record as 90%; with Setaria faberi (SETFA) [18] it was 100%. Also, the AMARE percentage phytotoxicity stood at 10% in experiment [12] and 100% in [19]. For the same compound, the figures for the SOLNI percentage phytotoxicity in the experiment on Solanum nigrum (SOLNI) [13] and with Solanum nigrum (SOLNI) [20] were 70% and 80%, respectively. The pest or weed control at 15.625 g/ha in experiment [14] was 60%; in [15], 100%. For the same compound, the pest or weed control at 62.5 g/ha in experiment [14] worked out at 70%; in experiment [15], 100%. For the same compound, the SETFA percentage phytotoxicity with Setaria faberi (SETFA) [16] (15.625 g/ha application rate) and in the experiment with Setaria faberi (SETFA) [16] (62.5 g/ha application rate) was 80% each time.
